Results on 5 compounds are retold here after patent US8796245B2 (TetraPhase Pharmaceuticals, Inc., priority 2008, dated 2014).

Common to all, as to type: cell-based
Test [1] relates to S. aureus SA161 (tet resistant: tet(M) ribosomal protection). Nature of the test: Minimum inhibitory concentration assay, SA161. To be noted: Staphylococcus aureus, read-out: MICs SA161. The procedure: (§1) Frozen bacterial strains were thawed and subcultured onto Mueller Hinton Broth (MHB) or other appropriate media (Streptococcus requires blood and Haemophilus requires hemin and NAD). Following incubation overnight, the strains were subcultured onto Mueller Hinton Agar and again incubated overnight. […] Isolated colonies were selected to prepare a starting inoculum equivalent to a 0.5 McFarland standard. The starting inoculum was diluted 1:125 using MHB for further use. Test compounds were prepared by dilution in sterile water to a final concentration of 5.128 mg/mL. Antibiotics (stored frozen, thawed and used within 3 hours of thawing) and compounds were further diluted to the desired working concentrations.
(§2) The assays were run as follows. Fifty μL of MHB was added to wells 2-12 of a 96-well plate. One hundred […] of appropriately diluted antibiotics was added to well 1. Fifty μL of antibiotics was removed from well 1 and added to well 2 and the contents of well 2 mixed by pipetting up and down five times. Fifty μL of the mixture in well 2 was removed and added to well 3 and mixed as above. Serial dilutions were continued in the same manner through well 12. Fifty μL was removed from well 12 so that all contained 50 μL. Fifty μL of the working inoculum was then added to all test wells. A growth control well was prepared by adding 50 μL of working inoculum and 50 μL of MHB to an empty well. The plates were then incubated at 37° C. overnight, removed from the incubator and each well was read on a plate reading mirror. The lowest concentration (MIC) of test compound that inhibited the growth of the bacteria was recorded.

The subject of test [2] is S. aureus ATCC 29213 (SA101, MSSA). Nature of the test: Minimum inhibitory concentration assay, SA101. The following applies: Staphylococcus aureus; S. aureus ATCC 29213, MSSA control; read-out: MICs SA101. The procedure: as §1, §2
For test [3], the system named is E. faecalis ATCC 29212 (EF103). The test is described as follows: Minimum inhibitory concentration assay, EF103. The following applies: Enterococcus faecalis, ATCC29212, read-out: MICs EF103. The procedure:
as §1, §2

Test [4] has as its system S. aureus ATCC 13709 (SA100, MSSA, Smith strain). The test is described as follows: Minimum inhibitory concentration assay, SA100. To be noted: Staphylococcus aureus; S. aureus ATCC 13709, MSSA Smith strain; read-out: MICs SA100. The procedure: as §1, §2
Test [5] deals with K. pneumoniae KP153 (tet resistant: tetA efflux). The test is described as follows: microbe, parasite or virus in culture. The following applies: Klebsiella pneumoniae, read-out: MICs KP153. The procedure:
as §1, §2

The subject of test [6] is E. coli EC155 (tet resistant: tetA efflux). The test is described as follows: microbe, parasite or virus in culture. The following applies: Escherichia coli; E. coli tet resistant: tetA (efflux); read-out: MICs EC155. The procedure:
as §1, §2

Test [7] relates to S. aureus SA158 (tet resistant: tetK efflux). The test is described as follows: microbe, parasite or virus in culture. The following applies: Staphylococcus aureus, read-out: MICs SA158. The procedure: as §1, §2
Test [8] concerns A. baumanii ATCC 19606 (AB110). Nature of the test: Minimum inhibitory concentration assay, AB110. The following applies: Acinetobacter baumannii, ATCC19606; A. baumanii ATCC 19606, wt; read-out: MICs AB110. The procedure:
as §1, §2

Test [9] concerns S. pneumoniae ATCC 49619 (SP106). The test is described as follows: Minimum inhibitory concentration assay, SP106. The following applies: Streptococcus pneumoniae, ATCC49619; S. pneumoniae ATCC 49619, wt; read-out: MICs SP106. The procedure: as §1, §2
Test [10] has as its system E. cloacae ATCC 13047 (EC108). Nature of the test: Minimum inhibitory concentration assay, EC108. The following applies: Enterobacter cloacae, ATCC13047; E. cloacae ATCC 13047, wt; read-out: MICs EC108. The procedure: as §1, §2
Test [11] has as its system P. aeruginosa ATCC 27853 (PA111). Nature of the test: Minimum inhibitory concentration assay, PA111. The following applies: Pseudomonas aeruginosa, ATCC27853; P. aeruginosa ATCC 27853, wt; read-out: MICs PA111. As to the method: as §1, §2
Test [12] has as its system E. coli ATCC 25922 (EC107). The test is described as follows: Minimum inhibitory concentration assay, EC107. To be noted: Escherichia coli, ATCC25922; E. coli ATCC 25922, wt; read-out: MICs EC107. The procedure: as §1, §2
Test [13] deals with K. pneumoniae ATCC 13883 (KP109). Nature of the test: Minimum inhibitory concentration assay, KP109. The following applies: Klebsiella pneumoniae, ATCC13883; K. pneumoniae ATCC 13883, wt; read-out: MICs KP109. The procedure:
as §1, §2

Test [14] deals with S. pneumoniae SP160 (tet resistant: tet M). Nature of the test: Minimum inhibitory concentration assay, SP160. To be noted: Streptococcus pneumoniae, read-out: MICs SP160. The procedure:
as §1, §2

Test [15] deals with E. faecalis EF159 (tet resistant: tetM). The test is described as follows: Minimum inhibitory concentration assay, EF159. To be noted: Enterococcus faecalis, read-out: MICs EF159. The procedure:
as §1, §2

≈ marks a conversion by molar mass, not a printed value. Some results are limits rather than exact numbers.

As to `CN(C)[C@@H]1C(O)=C(C(N)=O)C(=O)[C@@]2(O)C(O)=C3C(=O)c4c(O)c(NC(=O)CN5CCOCC5)cc(F)c4C[C@H]3C[C@@H]12` [Compound 44], the MIC in test [1] is 8 µg/mL (≈ 13.9 µM); in test [2], 4 µg/mL (≈ 6.96 µM); in test [3], 8 µg/mL (≈ 13.9 µM); in [4] it was 4 µg/mL (≈ 6.96 µM); in test [5], greater than 32 µg/mL; in test [6] it was greater than 32 µg/mL. Moreover, the MIC is 8 µg/mL (≈ 13.9 µM) in test [7]; 8 µg/mL (≈ 13.9 µM) in test [8]; 0.5 µg/mL (≈ 0.87 µM) in test [9]; greater than 32 µg/mL in test [10]; greater than 32 µg/mL in test [11]; 32 µg/mL (≈ 55.7 µM) in test [12]. The results for the MIC in test [13], in test [14] and in [15] were greater than 32 µg/mL, 1 µg/mL (≈ 1.74 µM) and 8 µg/mL (≈ 13.9 µM), respectively.

Turning to `CN(C)[C@@H]1C(O)=C(C(N)=O)C(=O)[C@@]2(O)C(O)=C3C(=O)c4c(O)c(NC(=O)CNCC5CC5)cc(F)c4C[C@H]3C[C@@H]12` [Compound 20], the MIC was 0.25 µg/mL (≈ 0.448 µM) in test [1]; no more than 0.0156 µg/mL in test [2]; no more than 0.0156 µg/mL in test [3]; 0.25 µg/mL (≈ 0.448 µM) in test [4]; 4 µg/mL (≈ 7.16 µM) in [5]; 8 µg/mL (≈ 14.3 µM) in test [6]. Also, the MIC in [7] is 0.5 µg/mL (≈ 0.895 µM); in [8] it was 1 µg/mL (≈ 1.79 µM); in test [9] it was no more than 0.0156 µg/mL; in test [10], 1 µg/mL (≈ 1.79 µM); in [11] it was 8 µg/mL (≈ 14.3 µM); in test [12] it was 0.25 µg/mL (≈ 0.448 µM). Further, the results for the MIC in test [13], in test [14] and in test [15] were 1 µg/mL (≈ 1.79 µM), no more than 0.0156 µg/mL and 0.0625 µg/mL (≈ 0.112 µM), respectively.

As for `CCCCNCC(=O)Nc1cc(F)c2c(c1O)C(=O)C1=C(O)[C@]3(O)C(=O)C(C(N)=O)=C(O)[C@@H](N(C)C)[C@@H]3C[C@@H]1C2` [Compound 13], the MIC in test [1] is 0.0625 µg/mL (≈ 0.111 µM); in test [2], no more than 0.0156 µg/mL; in test [3], no more than 0.0156 µg/mL; in [4] it was no more than 0.0156 µg/mL; in test [5], 2 µg/mL (≈ 3.57 µM); in test [6] it was 4 µg/mL (≈ 7.14 µM). Also, the MIC is 0.25 µg/mL (≈ 0.446 µM) in test [7]; 0.25 µg/mL (≈ 0.446 µM) in test [8]; no more than 0.0156 µg/mL in test [9]; 1 µg/mL (≈ 1.78 µM) in test [10]; 16 µg/mL (≈ 28.5 µM) in test [11]; 0.125 µg/mL (≈ 0.223 µM) in test [12]. For the same compound, the MIC was 0.5 µg/mL (≈ 0.892 µM) in [13], no more than 0.0156 µg/mL in test [14] and 0.0625 µg/mL (≈ 0.111 µM) in test [15].

On to `CCCN(C)CC(=O)Nc1cc(F)c2c(c1O)C(=O)C1=C(O)[C@]3(O)C(=O)C(C(N)=O)=C(O)[C@@H](N(C)C)[C@@H]3C[C@@H]1C2` [Compound 28], for which the MIC in test [1] was found to be 2 µg/mL (≈ 3.57 µM); in test [2], 1 µg/mL (≈ 1.78 µM); in test [3], 1 µg/mL (≈ 1.78 µM); in [4], 2 µg/mL (≈ 3.57 µM); in test [5], 16 µg/mL (≈ 28.5 µM); in test [6] it was 16 µg/mL (≈ 28.5 µM). The MIC in test [7] is 1 µg/mL (≈ 1.78 µM); in [8], 0.5 µg/mL (≈ 0.892 µM); in [9], 0.125 µg/mL (≈ 0.223 µM); in [10] it was 8 µg/mL (≈ 14.3 µM); in test [11], greater than 32 µg/mL; in [12], 2 µg/mL (≈ 3.57 µM). Besides, the results for the MIC in test [13], in test [14] and in test [15] were 4 µg/mL (≈ 7.14 µM), 0.0625 µg/mL (≈ 0.111 µM) and 1 µg/mL (≈ 1.78 µM), respectively.

Take `CN(C)[C@@H]1C(O)=C(C(N)=O)C(=O)[C@@]2(O)C(O)=C3C(=O)c4c(O)c(NC(=O)CC5CC(F)C5)cc(F)c4C[C@H]3C[C@@H]12` (stereo partly drawn) [Compound 33]: the MIC in [1] was 1 µg/mL (≈ 1.78 µM); in test [2], 0.25 µg/mL (≈ 0.445 µM); in test [3] it was 0.25 µg/mL (≈ 0.445 µM); in test [4], 0.5 µg/mL (≈ 0.89 µM); in test [5] it was greater than 32 µg/mL; in test [6], greater than 32 µg/mL. Moreover, the MIC in test [7] is 2 µg/mL (≈ 3.56 µM); in test [8] it was 4 µg/mL (≈ 7.12 µM); in [9] it was no more than 0.0156 µg/mL; in test [10], 16 µg/mL (≈ 28.5 µM); in [11] it was greater than 32 µg/mL; in test [12], 2 µg/mL (≈ 3.56 µM). Further, the values for the MIC in test [13], in [14] and in [15] were 4 µg/mL (≈ 7.12 µM), 0.125 µg/mL (≈ 0.223 µM) and 1 µg/mL (≈ 1.78 µM), respectively.
